Results: ChEMBL document CHEMBL1201862, “PubChem BioAssay data set” (2004)
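Dose response: 5 concentrations. Exposure: 48 h. Format: 96-well plates. Endpoint: linear interpolation; highest concentration if not reached. GI50 marks 50% less growth.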 Activity calls are given as the source filed them. Rule as the data show it: active = GI50 up to about 1.1 µM and inactive = higher.

How the values were obtained:
Experiment in all cases: NCI anticancer screen, dose series, 48 h
CAKI-1 = tested on: CAKI-1
LOX IMVI = tested on: LOX IMVI
NCI-H460 = tested on: NCI-H460
KM12 = tested on: KM12
ACHN = tested on: ACHN
NCI-H23 = tested on: NCI-H23
NCI-H522 = tested on: NCI-H522
MDA-N = tested on: MDA-N
M14 = tested on: M14
UO-31 = tested on: UO-31
HOP-62 = tested on: HOP-62
SW-620 = tested on: SW-620
NCI/ADR-RES = tested on: NCI/ADR-RES
RPMI-8226 = tested on: RPMI-8226
DU-145 = tested on: DU-145
MOLT-4 = tested on: MOLT-4
SN12C = tested on: SN12C
786-0 = tested on: 786-0
SF-268 = tested on: SF-268
HT-29 = tested on: HT-29
Malme-3M = tested on: Malme-3M
UACC-257 = tested on: UACC-257
OVCAR-5 = tested on: OVCAR-5
Hs-578T = tested on: Hs-578T
CCRF-CEM = tested on: CCRF-CEM
A498 = tested on: A498
HL-60 = tested on: HL-60
EKVX = tested on: EKVX
PC-3 = tested on: PC-3
SR = tested on: SR
A549 = tested on: A549
SF-295 = tested on: SF-295
HCT-15 = tested on: HCT-15
MDA-MB-435 = tested on: MDA-MB-435
K562 = tested on: K562
RXF 393 = tested on: RXF 393
HOP-92 = tested on: HOP-92
OVCAR-4 = tested on: OVCAR-4
T47D = tested on: T47D
UACC-62 = tested on: UACC-62
MDA-MB-231 = tested on: MDA-MB-231
COLO 205 = tested on: COLO 205
OVCAR-8 = tested on: OVCAR-8
SK-MEL-2 = tested on: SK-MEL-2
HCC 2998 = tested on: HCC 2998
MCF7 = tested on: MCF7
SNB-75 = tested on: SNB-75
BT-549 = tested on: BT-549
SNB-19 = tested on: SNB-19
OVCAR-3 = tested on: OVCAR-3
IGROV-1 = tested on: IGROV-1
SF-539 = tested on: SF-539
SK-MEL-28 = tested on: SK-MEL-28
TK-10 = tested on: TK-10
HCT-116 = tested on: HCT-116
U-251 = tested on: U-251
SK-MEL-5 = tested on: SK-MEL-5

CC1=NN(C(=O)CC(=O)Nc2cccc(Cl)c2)C(=O)C1/N=N/c1ccc(C(=O)O)cc1 (configuration not stated)
GI50 (CAKI-1): > 100 µM (inactive) | GI50 (LOX IMVI): 82.4 µM (inactive) | GI50 (NCI-H460): > 100 µM (inactive) | GI50 (KM12): > 100 µM (inactive) | GI50 (ACHN): > 100 µM (inactive) | GI50 (NCI-H23): > 100 µM (inactive) | GI50 (NCI-H522): > 100 µM (inactive) | GI50 (MDA-N): > 100 µM (inactive) | GI50 (M14): > 100 µM (inactive) | GI50 (UO-31): 65.2 µM (inactive) | GI50 (HOP-62): > 100 µM (inactive) | GI50 (SW-620): > 100 µM (inactive) | GI50 (NCI/ADR-RES): > 100 µM (inactive) | GI50 (RPMI-8226): > 100 µM (inactive) | GI50 (DU-145): > 100 µM (inactive) | GI50 (MOLT-4): 78.5 µM (inactive) | GI50 (SN12C): > 100 µM (inactive) | GI50 (786-0): > 100 µM (inactive) | GI50 (SF-268): > 100 µM (inactive) | GI50 (HT-29): > 100 µM (inactive) | GI50 (Malme-3M): > 100 µM (inactive) | GI50 (UACC-257): > 100 µM (inactive) | GI50 (OVCAR-5): > 100 µM (inactive) | GI50 (Hs-578T): > 100 µM (inactive) | GI50 (CCRF-CEM): 48.4 µM (inactive) | GI50 (A498): > 100 µM (inactive) | GI50 (HL-60): > 100 µM (inactive) | GI50 (EKVX): > 100 µM (inactive) | GI50 (PC-3): > 100 µM (inactive) | GI50 (SR): 48.9 µM (inactive) | GI50 (A549): > 100 µM (inactive) | GI50 (SF-295): > 100 µM (inactive) | GI50 (HCT-15): > 100 µM | GI50 (MDA-MB-435): > 100 µM (inactive) | GI50 (K562): > 100 µM (inactive) | GI50 (RXF 393): > 100 µM (inactive) | GI50 (HOP-92): 27.7 µM (inactive) | GI50 (OVCAR-4): > 100 µM (inactive) | GI50 (T47D): 37.2 µM (inactive) | GI50 (UACC-62): > 100 µM (inactive) | GI50 (MDA-MB-231): > 100 µM (inactive) | GI50 (COLO 205): > 100 µM (inactive) | GI50 (OVCAR-8): > 100 µM (inactive) | GI50 (SK-MEL-2): > 100 µM (inactive) | GI50 (HCC 2998): > 100 µM (inactive) | GI50 (MCF7): > 100 µM (inactive) | GI50 (SNB-75): 52.1 µM (inactive) | GI50 (BT-549): > 100 µM (inactive) | GI50 (SNB-19): > 100 µM (inactive) | GI50 (OVCAR-3): > 100 µM (inactive) | GI50 (IGROV-1): > 100 µM (inactive) | GI50 (SF-539): > 100 µM (inactive) | GI50 (SK-MEL-28): > 100 µM (inactive) | GI50 (TK-10): > 100 µM (inactive) | GI50 (HCT-116): > 100 µM (inactive) | GI50 (U-251): > 100 µM (inactive) | GI50 (SK-MEL-5): > 100 µM (inactive)
